Assay results taken from US10440953B2, “Control of pests in maize by ginkgolides and bilobalide” (priority 2015, dated 2019).
Read-outs that look alike come from different tables or passages of the source.

Tests used:
Format in all cases: in vivo
Euschistus heros [1] = experiment: Spray of Agrisure Viptera and Roundoup Ready 2 maize seedlings with bilobalide, control of Euschistus heros (Example-4); conditions: for Relative Efficacy 6DAI: Abbott's formula; for No of alive insects 6DAI: ten adult E. heros per plant
Protocol: (§1) Relative efficacy (E) values were calculated according to Abbot's formula E=[(C−G)/C]×100, wherein C is the percentage of alive insects in untreated controls, and G is the percentage of alive insects in plants treated with components of the ginkgo tree.
(§2) Agrisure™ Viptera and Roundoup Ready™ 2 Zea mays seedlings were sprayed with 1 ml of compositions comprising either no component of the ginkgo tree, or bilobalide at a concentration of 50, 100, or 150 ppm. Plants were allowed to dry and subsequently infested with ten adult insects of Euschistus heros. Three replicate measurement on different plants were made for each measurement. Six days after infestation (6DAI) number of live and dead insects was determined. The mean number of alive insects, as well as the relative efficacy values (E) according to Abbott's formula were gathered in Table G, wherein the number of alive insects in untreated controls (C) was the value of the same plant without the application of bilobalide.

Nezara viridula [2] = experiment: Soil drench on corn, mortality of Nezara viridula (Example-2); conditions: soil drench 2.5 mg active ingredient per plant, infested 3DAT, measured 7DAT
Protocol: Ginkgolide A and Bilobalide were each dissolved in a solution of 50 wt % of acetone in water and applied to the soil of corn four days after planting at a rate of 2.5 mg of the active ingredient per plant. Prior to infestation the soil was covered with parafilm to prevent insect exposure to treated soil. Each plant was infested 3DAT with four 4th instar Nezara viridula insects. Insects were contained on the plant using organza fabric bags. Four replicates on different plants were made for each measurement. The mortality of the insects was measured 7DAT. The mean mortality values were gathered in Table E.

Nezara viridula [3] = experiment: Foliar spray of maize plants, mortality of Nezara viridula (Example-1); conditions: for mortality at 100 ppm: Nezara viridula, foliar, 72 h
Protocol: Zea mays plants were grown to growth stage BBCH 12. The maize plants were then sprayed with 300 l/ha of aqueous compositions comprising either no component of the ginkgo tree, 300 ppm of ginkgolide A, or 100 ppm of bilobalide. The plants were then allowed to dry and subsequently infested with five insects (either adult, or 4th instar nymphs) of Nezara viridula. Insects were contained on the plant using mesh organza bags. Three replicates on different plants were made for each measurement. Three days after infestation, the number of live and dead insects was determined. The mean mortality values were gathered in Table D.

Nezara viridula [4] = experiment: Corn seed treatment, damage protection against Nezara viridula (Example-3); conditions: 4th instar N. viridula, assessed 10DAT
Protocol: Ginkgolide A was dissolved in DMSO and applied to corn seeds at rates of 1.0 and 0.5 mg of Ginkgolide A per plant. One seed was planted per pot in a 1:1 mixture of North Carolina loamy sand:sand. Prior to infestation, soil was covered with parafilm to prevent insect exposure to treated soil. After emergence of the plants, each pot was infested with four 4th instar Nezara viridula insects. Insects were contained on the pots using organza fabric bags. Four replicates on different plants were made for each measurement. The mean damage protection of the corn plants was assessed 10DAT in comparison with untreated controls. For plant height, root mass, and root length, evaluation of the damage protection of the plants was carried out for each treatment as the increase from the infested solvent blank (SB) relative to the increase of the uninfested control from the infested solvent blank: (Treatment−Infested SB)/Uninfested SB−Infested SB)×100%. The results of the mean damage protection values were gathered in Table F.

Euschistus heros [5] = experiment: Spray of Agrisure Viptera and Roundoup Ready 2 maize seedlings with ginkgolide A, control of Euschistus heros (Example-5); conditions: for Relative Efficacy 3DAI: Abbott's formula; for No of alive insects 3DAI: ten adult E. heros per plant
Protocol: as §1, §2
Three days after infestation (3DAI) number of live and dead insects was determined. The mean number of alive insects, as well as the relative efficacy values (E) according to Abbott's formula were gathered in Table H, wherein the number of alive insects in untreated controls (C) was the value of the same plant without the application of ginkgolide A.

[6] = Agrisure Viptera maize, 50 ppm bilobalide
[7] = Agrisure Viptera maize, 100 ppm bilobalide
[8] = Agrisure Viptera maize, 150 ppm bilobalide
[9] = Roundoup Ready 2 maize, 50 ppm bilobalide
[10] = Roundoup Ready 2 maize, 100 ppm bilobalide
[11] = Roundoup Ready 2 maize, 150 ppm bilobalide
[12] = Agrisure Viptera maize, 10 ppm ginkgolide A
[13] = Agrisure Viptera maize, 250 ppm ginkgolide A
[14] = Roundoup Ready 2 maize, 10 ppm ginkgolide A
[15] = Roundoup Ready 2 maize, 250 ppm ginkgolide A

CC(C)(C)[C@]1(O)C[C@@H]2OC(=O)C[C@@]23C(=O)O[C@@H]2OC(=O)[C@H](O)[C@]213 [Bilobalide, (3aS,5aR,8aS,9R,10aR)-9-tert-butyl-8,9-dihydroxydihydro-9H-furo[2,3-b]furo[3′,2′;2,3]cyclopenta[1,2-c]furan-2,4,7(3H,8H)-trione] was tested, and the “Relative Efficacy 6DAI” value (Euschistus heros [1]; [6]) was 92%, the “No of alive insects 6DAI” value (Euschistus heros [1]; [6]) was 0.7 and the “Relative Efficacy 6DAI” value (Euschistus heros [1]; [7]) was 96%. The “No of alive insects 6DAI” value (Euschistus heros [1]; [7]) was 0.3, the “Relative Efficacy 6DAI” value (Euschistus heros [1]; [8]) was 100% and the “No of alive insects 6DAI” value (Euschistus heros [1]; [8]) was 0.0. The “Relative Efficacy 6DAI” value (Euschistus heros [1]; [9]) was 83%, the “No of alive insects 6DAI” value (Euschistus heros [1]; [9]) was 1.0 and the “Relative Efficacy 6DAI” value (Euschistus heros [1]; [10]) was 89%. The “No of alive insects 6DAI” value (Euschistus heros [1]; [10]) was 0.7, the “Relative Efficacy 6DAI” value (Euschistus heros [1]; [11]) was 94% and the “No of alive insects 6DAI” value (Euschistus heros [1]; [11]) was 0.3. For the same compound, the “Mortality of 4th instar nymphs relative to untreated control” value (Nezara viridula [2]) was 85%, the mortality at 100 ppm (Nezara viridula [3]; read-out: Mortality of 4th instar nymphs) was 84.6% and the mortality at 100 ppm (Nezara viridula [3]; read-out: Mortality of Adults) was 33.3%.
For C[C@@H]1C(=O)O[C@H]2C[C@@]34[C@H]5C[C@@H](C(C)(C)C)[C@]36[C@@H](OC(=O)[C@@H]6O)O[C@@]4(C(=O)O5)[C@]21O [Ginkgolide A], the Mean damage protection (Nezara viridula [4]; seed treatment 0.5 mg/seed) was 64%, the Mean damage protection (Nezara viridula [4]; seed treatment 1.0 mg/seed) was 77% and the “Mortality of 4th instar nymphs relative to untreated control” value (Nezara viridula [2]) was 100%. The “Relative Efficacy 3DAI” value (Euschistus heros [5]; [12]) was 38%, the “No of alive insects 3DAI” value (Euschistus heros [5]; [12]) was 5.3 and the “Relative Efficacy 3DAI” value (Euschistus heros [5]; [13]) was 35%. For the same compound, the “No of alive insects 3DAI” value (Euschistus heros [5]; [13]) was 5.7, the “Relative Efficacy 3DAI” value (Euschistus heros [5]; [14]) was 14% and the “No of alive insects 3DAI” value (Euschistus heros [5]; [14]) was 8.3. For the same compound, the “Relative Efficacy 3DAI” value (Euschistus heros [5]; [15]) was 21%, the “No of alive insects 3DAI” value (Euschistus heros [5]; [15]) was 7.7 and the “Mortality of 4th instar nymphs” value (Nezara viridula [3]; 300 ppm ginkgolide A, 300 l/ha spray on Zea mays BBCH 12, 4th instar N. viridula, three days after infestation) was 61.5%. For the same compound, the “Mortality of Adults” value (Nezara viridula [3]; 300 ppm ginkgolide A, 300 l/ha spray on Zea mays BBCH 12, adult N. viridula, three days after infestation) was 20.0%.
